Assay results: patent US5510261A, “Method of controlling the degradation of glycoprotein oligosaccharides produced by cultured Chinese hamster ovary cells” (The Board of Trustees of the Leland Stanford Juniot …, priority 1995, dated 1996)

Tested on: neuraminidase present in CHO cell supernatant
Experiment: Inhibition of CHO neuraminidase activity, 4MU-NANA artificial substrate assay
Assay type: biochemical, Chinese hamster
Procedure: The artificial substrate 2'-(4-methylumbelliferyl)-α-D-N-acetylneuraminic acid (4MU-NANA) was used to assay for neuraminidase activity (modified from Potier et al., Anal. Biochem., 1979, 94, 287). The standard assay for lysate neuraminidase activity contained 0.1M sodium acetate (pH 3-6) or potassium phosphate (pH 6-8) buffer (10 μl of 1 M stock), 1 mM 4MU-NANA (25 μl from a 4 mM aliquot), and the lysate of 0.25 million cells ([…]) in a total volume of 100 μl. Supernatant samples were assayed identically, with supernatant replacing the added cell lysate. The 100 μl samples in plastic 1.5 ml tubes were placed in a 37° C. water bath with a shaker for 30 minutes (sometimes 60 minutes), and the reaction was stopped with 0.9 ml of 0.2M glycine (pH 10.4). […] An HP 1090 Series II HPLC coupled to an HP 1046A flow through fluorescence detector (Hewlett-Packard) was used for automated sample injection and analysis (no column). […] The fluorescence was integrated vs. time and compared to standard 4-methylumbelliferyl dilutions. […]
Aliquots of previously frozen and disrupted cells were thawed to 37° C. and assayed for neuraminidase activity as in the standard assay except the 4MU-NANA concentration varied at 0.1, 0.2, 0.4, 1 and 2 mM (pH 4.5, 5.5, 6.5 and 7.5). […] Kinetic parameters were determined by fitting an integrated form of the Michaelis-Menton equation: […]

Row | SMILES | inhibition of the neuraminidase present in CHO cell supernatant
1 | CC(=O)N[C@H]1[C@H]([C@H](O)[C@H](O)CO)OC(O)(C(=O)O)C[C@@H]1O (some centres unmarked) [NANA, N-acetylneuraminicacid] | shown to inhibit
2 | CC(=O)N[C@H]1[C@H]([C@H](O)[C@H](O)CO)OC(C(=O)O)=C[C@@H]1O [2,3-D, 2,3-dehydro-2-deoxy-N-acetylneuraminic acid] | shown to inhibit
